{
  "source": "patent US11136339B2",
  "about": "“Dihydroartemisinin diploid derivative, pharmaceutical composition thereof, and application” (priority 2017, dated 2021)",
  "key": {"[1]": {"test_system": "A549: human lung adenocarcinoma cells", "experiment": "Human cancer cell killing test by MTT method, A549", "format": "cell-based", "conditions": "A549, 96 h, read-out: IC50 A549", "description": "(§1) Well-growing tumor cells were collected, a RPM11640 medium containing 10% fetal bovine serum was used to prepare […] cell suspension, the tumor cells were inoculated in a 96-well culture plate, and 100 μL of the cell suspension (containing 1000 tumor cells) was added into each well, cultured in 5% CO2 incubator at 37° C. for 24 h, and then added with drugs (see Table 2). Blank control and solvent control were set in the experiment, and tested samples were set with four concentrations, with three parallel wells for each concentration, and cultured in 5% CO2 incubator at 37° C. for 4 days. A culture solution was discarded, and 100 μL of MTT solution (0.4 mg/mL, RPM11640 preparation) was added into each well and incubated at 37° C. for 4 h. A supernatant was discarded, 150 μL of […] was added into each well to dissolve particles, and after slight shaking, an OD value was measured at a detection wavelength of 540 nm and a reference wavelength of 450 nm with a 550 microplate reader.\n(§2) Result calculation: a dose-response curve can be obtained by plotting different concentrations of drugs and inhibition rates to cells, from which the median inhibitory concentration (IC50) can be obtained, and results are shown in Table 2. […] This is probably because that the artesunate is released slowly. […]"}, "[2]": {"test_system": "human erythrocyte infected by plasmodium strain (3D7)", "experiment": "Plasmodium killing test, SYBR Green I fluorescence method", "format": "cell-based", "conditions": "3D7, Erythrocyte, 48 h, read-out: median inhibitory concentration IC50 for killing plasmodium", "quoted_text": "Method: a plasmodium killing effect of a sample measured by a SYBR Green I fluorescence method\nMaterial: human erythrocyte infected by plasmodium strain (3D7) (0.5% parasitemia), RPMI 1640 complete medium, and carbon dioxide incubator (5% CO2, 5% O2, equilibrium N2, and 37° C.)\nThe medium was blank. The erythrocytes were incubated in a carbon dioxide incubator for 48 h (37° C.)."}, "[3]": {"experiment": "in vivo", "conditions": "female, BALB/c, mouse, iv, 10 mg/kg", "quoted_text": "BALB/c mice (female, five weeks, 20 g to 22 g) were divided into four groups (three mice in each group). […] A PBS solution of drugs was injected through tail vein.\nBlood samples were respectively taken at predetermined times (0.25 h, 0.5 h, 1 h, 3 h, 6 h, 12 h, 24 h and 48 h) and centrifuged at 3,000 rpm for 10 min to obtain plasma."}, "[4]": {"test_system": "MCF-7: human breast cancer cells", "experiment": "Human cancer cell killing test by MTT method, MCF-7", "format": "cell-based", "conditions": "MCF7, 96 h, read-out: IC50 MCF-7", "description": "as §1, §2"}, "[5]": {"experiment": "Solubility in water", "format": "physicochemical", "conditions": "20 °C", "description": "0.1 g of product B was dissolved in 20 mL of dichloromethane, added with 10 ml of TFA and 1 mL of triisopropylsilane, and reacted at 25° C. for 2 h. A reaction solution was diluted to 50 mL with dichloromethane, washed three times with saturated NaHCO3, and dried with Na2SO4, and a solvent was evaporated by rotation to obtain crude products. The crude product was purified by silica gel column (a mobile phase was dichloromethane: methanol/65:25) to obtain product of dihydroartemisinin dithiodiglycolic acid dimer carboxyl betaine. […] MS: [M+H]^+ 1039.27."}, "[6]": {"test_system": "Hep G2: human liver cancer cells", "experiment": "Human cancer cell killing test by MTT method, Hep G2", "format": "cell-based", "conditions": "HepG2, 96 h, read-out: IC50 Hep G2", "description": "as §1, §2"}, "[7]": {"test_system": "HeLa:", "experiment": "Human cancer cell killing test by MTT method, HeLa", "format": "cell-based", "conditions": "96 h, read-out: IC50 HeLa", "description": "as §1, §2"}, "[8]": {"test_system": "HL-60: human promyelocytic leukemia cells", "experiment": "Human cancer cell killing test by MTT method, HL-60", "format": "cell-based", "conditions": "HL-60, 96 h, read-out: IC50 HL-60", "description": "as §1, §2"}, "[9]": {"experiment": "In-vivo toxicity test of a mouse, oral administration", "conditions": "ICR mouse, male", "from_the_text": "Animal: ICR mouse, male, 18 g to 22 g, purchased from Vital River Laboratory Animal Technology Co., Ltd."}},
  "data": [
    {"smiles": "C[C@H]1[C@H](OC(=O)CCC(=O)O)O[C@@H]2O[C@@]3(C)CC[C@H]4[C@H](C)CC[C@@H]1[C@@]24OO3", "note": "[Artesunate]", "values": [
      {"measurement": "IC50", "setting": "[1]", "value": 110, "unit": "µg/mL"},
      {"measurement": "IC50", "setting": "[2]", "value": 10.3, "unit": "nM"},
      {"measurement": "AUC(0-t)", "setting": "[3]", "value": 80700, "unit": "ng·h/mL"},
      {"measurement": "Cmax", "setting": "[3]", "value": 23400, "unit": "ng/mL"},
      {"measurement": "MRT last", "setting": "[3]", "value": 2.71, "unit": "h"},
      {"measurement": "clearance", "setting": "[3]", "value": 3.73, "unit": "mL/min/kg"},
      {"measurement": "half-life", "setting": "[3]", "value": 1.52, "unit": "h"},
      {"measurement": "IC50", "setting": "[4]", "value": 150, "unit": "µg/mL"},
      {"measurement": "solubility", "setting": "[5]", "value": 360, "unit": "µg/mL"},
      {"measurement": "IC50", "setting": "[6]", "value": 100, "unit": "µg/mL"},
      {"measurement": "IC50", "setting": "[7]", "value": 130, "unit": "µg/mL"},
      {"measurement": "IC50", "setting": "[8]", "value": 130, "unit": "µg/mL"}
    ]},
    {"smiles": "C[C@H]1[C@@H](O)O[C@@H]2O[C@@]3(C)CC[C@H]4[C@H](C)CC[C@@H]1[C@@]24OO3", "note": "[Dihydroartemisinin]", "values": [
      {"measurement": "Oral median lethal dose", "setting": "[9]", "value": 810, "unit": "mg/kg weight"}
    ]}
  ]
}
